Columns and labels:
[1] = system: MOLM14 (heterozygote for FLT3-ITD); assay: Colony forming (methylcellulose clonogenic) assay in MOLM14; type: cell-based, Human
Protocol: (§1) Decitabine (DAC, 21.9 mM in DMSO, Sigma-Aldrich) was further diluted in water just before treatment of the cells with 5 nM, 10 nM or 20 nM of DAC. […] DAC was added every 24 hours for 72 hours with daily medium change, then the drug was washed out and cells were allowed to recover for 4 days (unless indicated otherwise) before further use. At day 7, cells were counted with trypan blue, treated with PARPi's, set in culture in 100 mm plates at a density of 0.2×10^6 cells/mL or in methylcellulose for colony forming assay as described later. At days indicated on the figures, 5- to 10×10^6 viable cells (trypan blue exclusion) were recovered, fast frozen and stored at −80° C. for further use for protein extraction.
(§2) Colony forming assay: At Day 7 of the experiment, equal numbers of viable cells (KASUMI-1 cells, 10000 cells/dish; MV411, 5000 cells/dish; MOLM14, 1000 cells/dish; Patients #16, 2000 cells/dish, #9, #13 and #15, 5000 cells/dish, #29, 10000 cells/dish, #30, 20000 cells/dish and #34, 40000 cells/dish) were treated as described earlier and plated in triplicate in 33 mm dish on MethoCult H4435 Enriched (StemCell Technologies, Vancouver, British Columbia, Canada) for MNC, or Methylcellulose Stock Solution (R&D Systems, Minneapolis, Minn.) supplemented with culture media for cell lines according to the instructions of the manufacturer. Ten to nineteen days later, colonies were stained with 2-(4-iodophenyl)-3-(4-nitrophenyl)-5-phenlytetrazolium chloride (1 mg/mL) overnight at 37° C. and colonies containing more than 40 cells were quantified using a colony counter and Protocol3 software (Synbiosis, Frederick, Md.).
(§3) In order to study if the DAC dependent reprogramming (Tsai et al., 2012) could sensitize AML cells to PARPi's, KASUMI-1, MOLM14 and MV411 cells were first treated with increased doses of DAC (5 nM-20 nM) for three days with daily replacement of drugs and media as described previously (Tsai et al., 2012). […]

[2] = system: MV411 (homozygote for FLT3-ITD); assay: Colony forming (methylcellulose clonogenic) assay in MV411; type: cell-based, Human
Protocol: as §1, §2, §3

normal bone marrow (NBM) = assay: Colony survival of normal bone marrow; type: cell-based; settings: drug concentrations used; BMN 1 nM in FIG. 18
Protocol: Colony forming assay: At Day 7 of experiment, equal numbers of viable cells (KASUMI-1 cells 10000 cells/dish; MV411 3000 cells/dish; MOLM14 1000 cells/dish; Patients #16, 2000 cells/dish, #9, #13 and #15, 5000 cells/dish, #29, 10000 cells/dish, #30, 20000 cells/dish and #34, 40000 cells/dish) were treated as described earlier and plated in triplicate in 33 mm dish on MethoCult H4435 Enriched (StemCell Technologies, Vancouver, British Columbia, Canada) for MNC, or Methylcellulose Stock Solution (R&D Systems, Minneapolis, Minn.) supplemented with culture media for cell lines according to the instructions of the manufacturer. Ten to nineteen days later, colonies were stained with 2-(4-iodophenyl)-3-(4-nitrophenyl)-5-phenlytetrazolium chloride (1 mg/mL) overnight at 37° C. and colonies containing more than 40 cells were quantified using colony counter and Protocol3 software (Synbiosis, Frederick, Md.).

γH2AX foci = γH2AX foci immunofluorescence in MV411; type: cell-based, Human
Protocol: Immunofluorescence: AML cells (0.2×10^6 cells) were cytospun onto glass slides for 5 min at 200 rpm in PBS 1× on a Shandon Cytospin 4. Cells were then fixed for 30 min in 4% paraformaldehyde, washed 3 times in DPBS (+CaCl2 and MgCl2, DPBS++), permeabilized for 10 min in permeabilization solution (50 mM NaCl, 3 mM MgCl2, 10 mM HEPES, 200 mM Sucrose and 0.5% Triton X-100 in PBS 1×), washed 3 times in DPBS (+CaCl2, +MgCl2) supplemented with BSA 1% (DPBS-BSA) and then blocked overnight in DPBS++ supplemented with 10% serum. After incubation with mouse monoclonal anti-γH2A.x (1:100, Upstate), rabbit polyclonal anti-RAD51 (1:100, Santa Cruz Biotechnologies, Dallas, Tex.), rabbit Poly-ADP-ribose (PAR, 1:200, Axxora, Farmingdale, N.Y.), or isotypes controls for an hour at 37° C. in DPBS-BSA, cells were washed and then incubated with Dylight 594-anti-mouse and Dylight 488-anti rabbit (1:200, KPL, Gaithersburg, Md.) for an hour at 37° C. prior to counterstaining with 4′,6 diamidino-2-phenylindole, dihydrochloride (DAPI, 0.3 μg/mL, Promega, Madison, Wis.) in mounting media (Vectashield, Vector Laboratories, Burlingame, Calif.). Slides were examined using a Nikon fluorescent microscope Eclipse 80i (100×/1.4 oil, Melville, N.Y.). Images of at least 50 cells/slide were captured using a CCD (charge-coupled device) camera and the imaging software NIS Elements (BR 3.00, Nikon).

MV411 = assay: cells; settings: Homo sapiens, MV4-11, 72 h
Protocol: (§6) Four hours prior to evaluation, 20 μL of MTS labelling reagent ([3-(4, 5-dimethylthiazol-2-yl)-5-(3-carboxymethoxyphenyl)-2-(4-sulfophenyl)-2H-tetrazolium, MTS supplemented with phenazine methosulfate, PMS, Promega, Madison, Wis.) was added to each well. The results were quantified using a VersaMax Elisa Microplate Reader at a wavelength of 490 nm and SoftMax®Pro software (Molecular Devices, Sunnyvale, Calif.). Results (fold changes compared to CRTL) are representative of the mean±SEM of three independent experiments in triplicate.
(§7) Four hours prior to evaluation, 20 μL of MTS labelling reagent ([3-(4,5-dimethylthiazol-2-yl)-5-(3-carboxymethoxyphenyl)-2-(4-sulfophenyl)-2H-tetrazolium, MTS supplemented with phenazine methosulfate, PMS, Promega, Madison, Wis.) was added to each well. The results were quantified using a VersaMax Elisa Microplate Reader at a wavelength of 490 nm and SoftMax®Pro software (Molecular Devices, Sunnyvale, Calif.). Results (Fold changes compared to CRTL) are representative of the mean±SEM of three independent experiments in triplicate.

MOLM14 = assay: cells; settings: Homo sapiens, MOLM-14, 72 h
Protocol: as §6, §7

[3] = system: cancer cell lines derived from leukemia, breast, ovarian, and lung; assay: Methylcellulose colony assay in multiple cancer cell lines; type: cell-based
Protocol: (§4) Multiple cancer cell lines derived from leukemia, breast, ovarian, and lung were treated with low dose DAC/5-AZA (10 nM and 5 nM) for 3 days, followed by removal of the drug for 4 days to 7 days, and subsequent plating of cells in methylcellulose to follow self-renewal capability in the presence or absence of the PARP inhibitor ABT888 (500 nM).

MCF7 = assay: Clonogenicity of breast cancer cells MCF7; type: cell-based; settings: 5AZA alone
Protocol: (§5) There were 7 days of recovery between the DNMTi and PARPi treatment;
as §4

MDA MB231 = assay: Clonogenicity of breast cancer cells MDA MB231; type: cell-based; settings: 5AZA alone
Protocol: as §5, §4

HCC1937 = assay: Clonogenicity of breast cancer cells HCC1937; type: cell-based; settings: 5AZA alone
Protocol: as §5, §4

A2780 = assay: Clonogenicity of ovarian cancer cells A2780; type: cell-based; settings: 5AZA alone
Protocol: as §5, §4

OVCAR3 = assay: Clonogenicity of ovarian cancer cells OVCAR3; type: cell-based; settings: 5AZA alone
Protocol: as §5, §4

PARP = settings: treatment alone
[4] = system: KASUMI-1 (AML1-ETO positive); assay: Colony forming (methylcellulose clonogenic) assay in KASUMI-1; type: cell-based, Human; settings: ABT888 500 nM, single agent
Protocol: as §1, with “extraction. […]” for “extraction.”
In order to study if the DAC dependent reprogramming (Tsai et al., 2012) could sensitize AML cells to PARPi's, KASUMI-1, MOLM14 and MV411 cells were first treated with increased doses of DAC (5 nM-20 nM) for three days with daily replacement of drugs and media as described previously (Tsai et al., 2012). […] Ten days later, clonogenic efficiency was measured by counting colonies with more than 40 cells and results were expressed as fold changes compared to controls (CRTL) (FIG. 2).

[5] = system: mononuclear cells (MNC) from AML patients; assay: Colony forming assay in primary cells from AML patients; type: cell-based, Human; settings: ABT888 500 nM alone; 3 of 6 patients (#15, #29, #16)
PARP1 = target: T1, PARP1 (Homo sapiens, UniProt P09874); assay: PARP1 trapping in chromatin, Western blot of chromatin extracts of X-irradiated AML cells; type: cell-based; settings: MV411, ABT888 5 μM alone, 4Gy X-ray, FIG. 15E
T1 construct: chromatin extracts from cells X-irradiated (4Gy) to induce DSBs were examined; endogenous in cells; host or cells: MV411 and MOLM14 AML cells
Description: Irradiation: For irradiation (IR) studies, cells were exposed to 4Gy X-Ray radiation using a Pantak HF320 X-Ray machine (250 kV peak, 13 mA; half-value layer, 1.65 mm copper) at a dose rate of 2.4 Gy/min. After IR, cells were allowed to recover from DNA damage for 4 hrs before extraction of protein.
Subcellular fractionation: To isolate the chromatin bound fraction (CH) and soluble nuclear fraction (NUC), a Subcellular Protein Fractionation kit (Thermo Fisher Scientific, Waltham, Mass.) was used by following the instructions of the manufacturer.
Immunoblotting: Immunoblotting was performed following standard procedures using 5 μg of NUC and CH fractions. Proteins were loaded onto a 4%-20% SDS-PAGE gel (Bio-Rad laboratories, Hercules, Calif.), transferred on PVDF membrane (GE Healthcare Life Sciences, Pittsburgh, Pa.) and blots were washed in Tris Buffered Saline-0.1% Tween 20 (TBST) three times, blocked in TBST-5% bovine serum albumin (TBST-BSA) for an hour at least and first antibodies in TBST-BSA were applied overnight at 4° C. on shaker. […]

[6] = BMN673 between 10 nM and 100 nM

T1 sequence (P09874 whole entry): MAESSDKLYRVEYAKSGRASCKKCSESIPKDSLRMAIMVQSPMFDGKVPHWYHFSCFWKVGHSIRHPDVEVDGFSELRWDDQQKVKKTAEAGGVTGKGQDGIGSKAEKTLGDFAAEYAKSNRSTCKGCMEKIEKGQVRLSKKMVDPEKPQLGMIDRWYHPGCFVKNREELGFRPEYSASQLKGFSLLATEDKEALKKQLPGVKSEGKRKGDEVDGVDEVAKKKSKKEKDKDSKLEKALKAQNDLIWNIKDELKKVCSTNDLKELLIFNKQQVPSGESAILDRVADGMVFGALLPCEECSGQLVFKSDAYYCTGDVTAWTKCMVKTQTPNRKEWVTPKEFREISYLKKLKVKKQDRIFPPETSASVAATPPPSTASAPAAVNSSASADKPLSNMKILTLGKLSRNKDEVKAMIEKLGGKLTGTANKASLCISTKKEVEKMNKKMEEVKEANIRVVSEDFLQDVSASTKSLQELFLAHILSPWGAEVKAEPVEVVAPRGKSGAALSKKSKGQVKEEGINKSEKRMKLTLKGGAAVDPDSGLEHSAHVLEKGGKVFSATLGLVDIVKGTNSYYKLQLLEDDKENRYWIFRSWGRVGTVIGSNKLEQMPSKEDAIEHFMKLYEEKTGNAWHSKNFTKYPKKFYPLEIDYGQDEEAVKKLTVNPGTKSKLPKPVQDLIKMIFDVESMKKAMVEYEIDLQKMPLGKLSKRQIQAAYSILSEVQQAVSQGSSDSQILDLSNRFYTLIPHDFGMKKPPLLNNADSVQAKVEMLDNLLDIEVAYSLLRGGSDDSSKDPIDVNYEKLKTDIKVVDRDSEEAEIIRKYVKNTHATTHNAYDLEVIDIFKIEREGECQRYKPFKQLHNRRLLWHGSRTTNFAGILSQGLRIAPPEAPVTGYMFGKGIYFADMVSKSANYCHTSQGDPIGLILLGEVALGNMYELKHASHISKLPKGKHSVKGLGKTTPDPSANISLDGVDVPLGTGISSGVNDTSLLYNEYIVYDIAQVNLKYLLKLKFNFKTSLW

Q: For `Cn1ncnc1[C@H]1c2n[nH]c(=O)c3cc(F)cc(c23)N[C@@H]1c1ccc(F)cc1` [BMN673], which “sensitivity in clonogenic assay” value ([1]; BMN673 1 nM) is on record?
A: cytotoxity occurring

Q: What about the colony formation [1, 6] of the same compound?
A: profoundly inhibited colony formation

Q: What about the “sensitivity in clonogenic assay” value ([2]; BMN673 1 nM) of the same compound?
A: barely sensitive

Q: And the colony formation [2, 6]?
A: profoundly inhibited colony formation

Q: What about the “colony survival of normal bone marrow” value (normal bone marrow (NBM)) of the same compound?
A: not affected

Q: What about the γH2AX foci (γH2AX foci; MV411, BMN673 10 nM alone) of the same compound?
A: an increase in foci

Q: And the IC50 (MV411)?
A: 6.45 µM

Q: And the IC50 (MOLM14)?
A: 4.46 µM

Q: Which results are given for `Nc1ncn([C@@H]2O[C@H](CO)[C@@H](O)[C@H]2O)c(=O)n1` [5AZA, 5-azacitidine]?
A: colony numbers ([3]; DAC/5-AZA (10 nM and 5 nM) for 3 days alone): significant decrease in colony numbers; clonogenicity (MCF7): decreased; clonogenicity (MDA MB231): decreased; clonogenicity (HCC1937): decreased; clonogenicity (A2780): decreased; clonogenicity (OVCAR3): decreased; PARP activity (PARP): decreases PARP activity

Q: Which results are given for `C[C@]1(c2nc3c(C(N)=O)cccc3[nH]2)CCCN1` [ABT888, Veliparib]?
A: colony number vs CRTL [4]: not significantly affected; colony number vs CRTL ([1]; ABT888 500 nM, single agent): significant reduction of colony numbers; colony number vs CRTL ([2]; ABT888 500 nM, single agent): significant reduction of colony numbers; responders: patients with decreased colony number [5]: 50%; colony numbers ([3]; ABT888 500 nM alone): has an effect in some cases; PARP trapping into chromatin (PARP1): traps PARP into chromatin; γH2AX foci (γH2AX foci; MV411, ABT888 5 μM alone): an increase in foci; IC50 (MV411): > 25 µM; PARP activity (PARP): decreases PARP activity; IC50 (MOLM14): > 25 µM

— patent US10105382B2, “Therapy regimen and methods to sensitize cancer cells treated with epigenetic therapy to PARP inhibitors in ovarian cancer” (THE JOHNS HOPKINS UNIVERSITY, priority 2014, dated 2018)
